Details: all storage conditions of the table; consistency in the IR pattern
Description: The term “stable” is used to describe an intimate mixture of desloratadine Form I and Form II that maintains the initial weight ratio of forms during formulation into a pharmaceutical dosage form and thereafter during a commercially useful period of normal storage and use, such as about one year, about 18 months, about two years, or any other desired period. […] Stability testing procedures are well known in the pharmaceutical industry.

Clc1ccc2c(c1)CCc1cccnc1C2=C1CCNCC1 [8-chloro-6,11-dihydro-11-(4-piperidylidene)-5H-benzo[5,6]cyclohepta[1,2-b]pyridine]
interconversion of forms during the storage period: no interconversion of forms
